Values quoted from earlier work, collected in patent publication US9173857B2, “Controlled dose drug delivery system” (Shire LLC, priority 2006, dated 2015).

Key:
[1] = pulsatile capsule with release after a nominal 5-hr period; majority of subjects
[2] = wax-surfactant coating, higher coating level (60%)

SMILES	amounts of the drug observed in the blood [1]	lag time of drug release [2]	time required for complete release after the lag time [2]
C[C@H](CS)C(=O)N1CCC[C@H]1C(=O)O [captopril]	no measurable amounts		
Cn1c(=O)c2[nH]cnc2n(C)c1=O [theophylline]		two-hour	three hours
